Source: patent US6545002B1 (University of Virginia Patent Foundation, priority 1999, dated 2003)
Like-named read-outs stand apart in the source and are kept apart here.

Assays:
[1] = target: T1, rat A2A receptors (rA2A) (Rattus norvegicus, UniProt P30543); test: Displacement of [3H]CGS 21680 binding in rat striatal membranes; details: for Ki: read-out: rA2A Ki or IC50
T1 construct: to A2A receptors from rat striatal membranes was performed as described; from tissue; host or cells: rat striatal membranes
T1 sequence (P30543 whole entry): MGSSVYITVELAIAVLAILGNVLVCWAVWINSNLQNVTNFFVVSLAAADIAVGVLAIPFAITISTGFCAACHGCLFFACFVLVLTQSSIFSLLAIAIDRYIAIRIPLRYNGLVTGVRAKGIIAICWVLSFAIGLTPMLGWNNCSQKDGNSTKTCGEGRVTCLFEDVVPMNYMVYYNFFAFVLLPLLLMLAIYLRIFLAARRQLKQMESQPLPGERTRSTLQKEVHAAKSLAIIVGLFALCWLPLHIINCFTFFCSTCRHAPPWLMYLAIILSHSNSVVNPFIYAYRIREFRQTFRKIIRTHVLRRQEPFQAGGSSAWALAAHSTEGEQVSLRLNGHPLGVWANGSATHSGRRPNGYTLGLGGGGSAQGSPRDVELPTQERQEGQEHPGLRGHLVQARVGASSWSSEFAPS
Procedure: (§1) Bruns, R. F. et al., Naunyn-Schmiedeberg's Arch. […] Binding of [^3H]R-N^6-phenylisopropyladenosine. Schwabe, U. et al., Naunyn-Schmiedeberg's Arch. […] (Dupont NEN, Boston, Mass.) to A2A receptors from rat striatal membranes was performed as described. […] All non-radioactive compounds were initially dissolved in DMSO, and diluted with buffer to the final concentration, where the amount of DMSO never exceeded 2%. Incubations were terminated by rapid filtration over Whatman GF/B filters, using a Brandell cell harvester (Brandell, Gaithersburg, Md.). The tubes were rinsed three times with 3 mL buffer each.
(§2) At least six different concentrations of competitor, spanning 3 orders of magnitude adjusted appropriately for the IC50 of each compound, were used. IC50 values, calculated with the nonlinear regression method implemented in (Graph-Pad Prism, San Diego, Calif.), were converted to apparent Ki values as described. Linden, J., J. Cycl. Nucl.

[2] = target: T2, rat A1 receptors (rA1) (Rattus norvegicus, UniProt P25099); test: Displacement of [3H]R-PIA binding in rat brain (cerebral cortical) membranes; details: for Ki: read-out: rA1 Ki or IC50
T2 construct: to A1 receptors from rat cerebral cortical membranes; from tissue; host or cells: rat cerebral cortical (brain) membranes
T2 sequence (P25099 1-326): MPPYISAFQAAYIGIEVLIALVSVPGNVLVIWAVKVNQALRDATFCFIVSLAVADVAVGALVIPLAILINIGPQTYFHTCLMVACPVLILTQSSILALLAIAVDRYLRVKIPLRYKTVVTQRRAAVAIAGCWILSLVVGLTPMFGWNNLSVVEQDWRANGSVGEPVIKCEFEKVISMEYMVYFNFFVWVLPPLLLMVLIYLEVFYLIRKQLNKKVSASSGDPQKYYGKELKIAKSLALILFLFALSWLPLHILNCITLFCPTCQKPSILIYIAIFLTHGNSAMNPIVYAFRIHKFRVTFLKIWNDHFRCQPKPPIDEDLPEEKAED
Procedure: as §1, §2

[3] = target: T3, human A2B receptors (hA2B) (Homo sapiens, UniProt P29275); test: Radioligand binding ([125I]ABOPX / [3H]ZM241385) at human A2B receptors expressed in HEK-293 cells; details: for Ki: read-out: hA2B Ki or IC50
T3 construct: expressed in transfected cells; host or cells: HEK-293 (HEK-A2B, G418-selected)
T3 sequence (P29275 1-332): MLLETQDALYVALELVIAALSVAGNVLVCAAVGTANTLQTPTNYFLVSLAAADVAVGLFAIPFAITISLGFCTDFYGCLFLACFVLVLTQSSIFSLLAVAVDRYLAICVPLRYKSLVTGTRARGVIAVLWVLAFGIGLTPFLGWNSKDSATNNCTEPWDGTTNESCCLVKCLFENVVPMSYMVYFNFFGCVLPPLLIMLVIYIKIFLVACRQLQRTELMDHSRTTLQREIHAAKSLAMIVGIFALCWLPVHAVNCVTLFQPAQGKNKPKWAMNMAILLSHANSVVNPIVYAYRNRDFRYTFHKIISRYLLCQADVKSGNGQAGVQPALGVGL

CC(=O)c1ccccc1NC(=O)/C=C/c1ccc(-c2nc3c([nH]2)c(=O)n(CC2CCCCC2)c(=O)n3CC2CCCCC2)cc1 [Compound 36, 8-[4-(2-(2-Acetylphenyl)carbamoyl-trans-vinyl)phenyl]-1,3-di-(cyclohexylmethyl)xanthine]
melting point: 305 °C

CC(=O)c1ccccc1NC(=O)COc1ccc(-c2nc3c([nH]2)c(=O)n(Cc2ccccc2)c(=O)n3Cc2ccccc2)cc1 [Compound 38, 8-[4-[((2-Acetylphenyl)carbamoylmethyl)oxy]phenyl]-1,3-dibenzyl-xanthine]
melting point: 284 °C

CCCn1c(=O)c2[nH]c(-c3ccc(OCC(=O)N(C)c4ccccc4)cc3)nc2n(CCC)c1=O [Compound 16, 8-[4-[(N-Methyl-N-phenylcarbamoylmethyl)oxy]phenyl]-1,3-di-(n-propyl)xanthine]
melting point: 215 °C
Ki ([1]; Table 2): 497 ± 250 nM
Ki ([2]; Table 2): 218 ± 80 nM
selectivity for human A2B versus rat A1 receptors [3]: 40 fold
selectivity for human A2B versus rat A2A receptors [3]: 92 fold
reduction of affinity by N-methylation ([3]; N-methyl anilide versus anilide, human A2B): 3.7 fold
Ki ([3]; Table 2): 5.42 ± 1.71 nM

CCCn1c(=O)c2[nH]c(-c3ccc(OCC(=O)Nc4ccc(C(=O)NC)cc4)cc3)nc2n(CCC)c1=O [Compound 23, 8-[4-[((4-Methylcarbamoyl)phenylcarbamoylmethyl)oxy]phenyl]-1,3-di-(n-propyl)xanthine]
melting point: > 310 °C
Ki ([1]; Table 2): 98.1 ± 49.6 nM
Ki ([2]; Table 2): 24.8 ± 1.8 nM
Ki ([3]; Table 2): 3.34 ± 0.51 nM

CCCn1c(=O)c2[nH]c(-c3ccc(OCC(=O)N(CC(=O)OCC)CC(=O)OCC)cc3)nc2n(CCC)c1=O [Compound 17, 8-[4-[(N,N-bis(Ethoxycarbonylmethyl)carbamoylmethyl)oxy]-phenyl]-1,3-di-(n-propyl)xanthine]
melting point: 225 °C
Ki ([1]; Table 2): 999 ± 144 nM
Ki ([2]; Table 2): 26.8 ± 2.4 nM
Ki ([3]; Table 2): 43.4 ± 8.4 nM

O=C(O)/C=C/c1ccc(-c2nc3c([nH]2)c(=O)n(Cc2ccccc2)c(=O)n3Cc2ccccc2)cc1 [Compound 10, 8-(4-(2-Carboxy-trans-vinyl)phenyl)-1,3-dibenzyl-xanthine]
melting point: > 310 °C
Ki ([1]; Table 1, [3H]CGS 21680, rat striatal membranes): 4450 nM
Ki ([2]; Table 1, [3H]R-PIA, rat brain membranes): 201 ± 23 nM
Ki ([3]; Table 1, [125I]ABOPX, HEK-293): 469 ± 23 nM

CCCn1c(=O)c2[nH]c(-c3ccc(OCC(=O)Nc4ccc(C(N)=O)cc4)cc3)nc2n(CCC)c1=O [Compound 22, 8-[4-[((4-Carbamoyl)phenylcarbamoylmethyl)oxy]phenyl]-1,3-di-(n-propyl)xanthine]
melting point: > 310 °C
Ki ([1]; Table 2): 683 ± 167 nM
Ki ([2]; Table 2): 10.2 ± 2.5 nM
Ki ([3]; Table 2): 7.75 ± 1.11 nM

CCCn1c(=O)c2[nH]c(-c3ccc(OCC(N)=O)cc3)nc2n(CCC)c1=O [Compound 11]
Ki ([1]; Table 2): 76.3 ± 14 nM
more potent than the carboxylic acid 4a at A2A receptors ([1]; relative to 4a): 29 fold
Ki ([2]; Table 2): 20 ± 3.8 nM
more potent than the carboxylic acid 4a at A1 receptors ([2]; relative to 4a): 3 fold
potency versus the carboxylic acid 4a at A2B receptors ([3]; relative to 4a): equipotent

CCCn1c(=O)c2[nH]c(-c3ccc(OCC(=O)Nc4ccc(C)cc4)cc3)nc2n(CCC)c1=O [Compound 25]
Ki ([1]; Table 2): 126 ± 38 nM
Ki ([2]; Table 2): 17.5 ± 5 nM
Ki ([3]; Table 2): 1.88 ± 0.76 nM

CC(=O)c1ccccc1NC(=O)/C=C/c1ccc(-c2nc3c([nH]2)c(=O)n(Cc2ccccc2)c(=O)n3Cc2ccccc2)cc1 (hydrate or solvate) [Compound 37, 8-[4-(2-(2-Acetylphenyl)carbamoyl-trans-vinyl)phenyl]-1,3-dibenzylxanthine]
melting point: 308 to 309 °C

CCn1c(=O)c2[nH]c(-c3ccc(OCC(=O)Nc4ccc(C)cc4)cc3)nc2n(CC)c1=O [Compound 39]
Ki ([1]; Table 3): 71.1 ± 7.7 nM
Ki ([2]; Table 3): 34.9 ± 0.3 nM
Ki ([3]; Table 3): 1.78 ± 0.43 nM

CCCn1c(=O)c2[nH]c(-c3ccc(OCC(=O)Nc4ccc(O)cc4)cc3)nc2n(CCC)c1=O [Compound 26]
Ki ([1]; Table 2): 63.3 ± 20.4 nM
Ki ([2]; Table 2): 5.88 ± 1.06 nM
Ki ([3]; Table 2): 3.71 ± 0.76 nM

CCCn1c(=O)c2[nH]c(-c3ccc(OCC(=O)NC(c4ccccc4)c4ccccc4)cc3)nc2n(CCC)c1=O [Compound 14, 8-[4-[(Diphenylmethylcarbamoylmethyl)oxy]phenyl]-1,3-di-(n-propyl)xanthine]
melting point: 269 to 270 °C
rA2A % displacement ([1]; Table 2, at (1000)): 20 ± 8%
Ki ([2]; Table 2): 120 ± 21 nM
Ki ([3]; Table 2): 33.7 ± 17 nM
